Entries after “also recorded” stand apart in the source; their conditions may differ. Non-standard residues stand in square brackets, D forms with d. No end group written: not given here. pS = N[C@@H](COP(=O)(O)O)C(=O)O
Tests used:
rat aorta [1] = experiment: Endothelial-dependent relaxation of rat aorta after cytokine (IL1β / cytomix) injury; format: cell-based; conditions: 2 hrs; for endothelial function (percent relaxation to carbachol) after IL1β injury: IL1β 50 ng/ml, peptide 100 μM; for endothelial function (percent relaxation to carbachol) after cytokine injury: IL1β alone 50 ng/ml or cytomix (IL1β, TNFa, IFNg), peptide 500 μM
Protocol: Freshly isolated rat aorta (RA) was cut into rings and suspended in the muscle bath. Tissues were then treated with either IL1β alone (50 ng/ml) or cytomix (IL1β 50 ng/ml, TNFa, 10 ng/ml, IFNg 50 ng/ml) in the absence or presence of NiPp (500 μM) for 2 hrs, contracted with PE, and then treated with escalating doses of carbachol (CCH; 10^−8 to 10^−5M). The percent relaxation was determined as a change to the maximal PE-induced contraction. n=5-7 rats. *p<0.05 in two-way ANOVA with Tukey post-test. NiPp restores cytokines-induced endothelial dysfunction in RA.
Freshly isolated rat aorta (RA) was cut into rings and suspended in the muscle bath. Tissues were then treated with the cytokine IL1β (50 ng/ml) in the absence or presence of NiPp, NiPp3, or scr3NiPp (100 μM) for 2 hrs, contracted with PE, and then treated with escalating doses of carbachol (CCH; 10^−8 to 10^−5 M). The percent relaxation was determined as a change to the maximal PE-induced contraction. n=5-7 rats. *p<0.05 in two-way ANOVA with Tukey post-tests. There were significant differences between IL1β-treated vs ctrl or NiPp-treated RA.
Freshly isolated rat aorta (RA) was cut into rings and suspended in the muscle bath. Tissues were then treated with either IL1β alone (50 ng/ml) or cytomix (IL1β 50 ng/ml, TNFa, 10 ng/ml, IFNg 50 ng/ml) in the absence or presence of NiPp (500 μM) for 2 hrs, contracted with PE, and then treated with escalating doses of carbachol (CCH; 10−8 to 10−5 M).
Freshly isolated rat aorta (RA) was cut into rings and suspended in the muscle bath. Tissues were then treated with the cytokine IL1β (50 ng/ml) in the absence or presence of NiPp, NiPp3, or scr3NiPp (100 μM) for 2 hrs, contracted with PE, and then treated with escalating doses of carbachol (CCH; 10^−8 to 10^−5 M). NiPp3 (SEQ ID NO:77) is a control polypeptide containing non-phosphorylated sequence of X2 of NiPp. scr3NiPp3 (SEQ ID NO:79) is a control polypeptide containing scrambled sequence of X2 of NiPp.

rat aorta [2] = experiment: Endothelial-dependent relaxation of rat aorta after BzATP (ATP / P2X7R) injury, muscle bath; format: cell-based; conditions: BzATP 1 mM, room temperature; for endothelial function (percent relaxation to carbachol of PE-precontracted tissue) after BzATP injury: peptide 100 and 500 μM, 1 hour
Protocol: Freshly isolated rat aorta was treated with 3′-O-(4-Benzoyl)benzoyl adenosine 5′-triphosphate (BzATP, 1 mM), an analogue of ATP, to induce injury in the absence or presence of NiPp (100 and 500 μM) for 1 hour at room temperature. To determine the effect of injury on endothelial function, phenylephrine (PE)-precontracted tissues were treated with carbachol (CCH; 5×10^−7 M) and the percent relaxation was determined as a change to the maximal PE-induced contraction. Data are reported as mean responses±standard deviation. n=5-6. *p<0.05, paired t-test.
Freshly isolated rat aorta was treated with 3′-O-(4-Benzoyl)benzoyl adenosine 5′-triphosphate (BzATP, 1 mM), an analogue of ATP, to induce injury in the absence or presence of NiPp, NiPp3, or scr3NiPp (A, 100 and B, 500 μM) for 1 hour at room temperature. To determine the effect of injury on endothelial function, phenylephrine (PE)-precontracted tissues were treated with escalating doses of carbachol (CCH; 10^−10 to 10^−5M) and the percent relaxation was determined as a change to the maximal PE-induced contraction. n=7. *p<0.05, two-way ANOVA with Tukey post-tests. There were significant differences between BzATP-treated vs ctrl or NiPp-treated RA.
Tissue rings were then transferred to NS and continued incubation in the absence or presence of NiPp (500 μM) for 2 h at room temperature. Control rings (Ctrl) were incubated in PL for 2.5 h. […] After treatments, RA were suspended in the muscle bath, contracted with PE and then treated with escalating doses of carbachol (CCH; 10^−8 to 10^−5M). The percent relaxation was determined as a change to the maximal PE-induced contraction. Percent relaxation to 5×10^−7 M CCH is shown. n=5-7 rats. *p<0.05 in one-way ANOVA with Tukey post-test. Data are expressed as mean±SD.
NiPp was synthesized at 3 separate times and tested in the muscle bath using rat aorta (RA). RA was either left untreated (Ctrl) or treated with BzATP (1 mM) in the absence of presence of NiPp (500 μM) in PL for 2 h at room temperature. After treatments, RA were suspended in the muscle bath, contracted with PE and then treated with escalating doses of carbachol 5×10^−7 M CCH. The percent relaxation was determined as a change to the maximal PE-induced contraction. […] Data are expressed as mean±SD.
Measurement of endothelial-dependent relaxation. […]
This produced the maximal force tension relationship as previously described. […] Contractile responses were defined by stress, calculated using force generated by tissues as follows: stress (×10^5 N/m^2)=force (g)×0.0987/area, where area=wet weight (mg)/at maximal length (mm)]/1.055.
Relaxation was calculated as percent change in stress compared to the maximal PE-induced contraction (set as 100%). […]

Substance | endothelial function (percent relaxation to carbachol) after IL1β injury (rat aorta [1]) | endothelial function (percent relaxation to carbachol) after IL1β injury (rat aorta [1]; listed as scr3NiPp3) | endothelial function (percent relaxation to carbachol of PE-precontracted tissue) after BzATP injury (rat aorta [2]) | endothelial function (percent relaxation to carbachol) after cytokine injury (rat aorta [1]) | endothelial function (percent relaxation to 5×10^−7 M CCH) after P2X7R activation by BzATP (rat aorta [2]; NiPp 500 μM in PL, 1 h)
YARAAARQARAAGSPPLA(pS)AIARR (YARAAARQARAAGSPPLA[pS]AIARR) [scr3NiPp] | did not restore | failed to restore | did not restore | – | –
YARAAARQARASPAARRA(pS)AILPG (YARAAARQARASPAARRA[pS]AILPG) [NiPp, Cell-permeant phosphopeptide mimetic of Niban: transduction domain … conjugated to the region surrounding serine 602 of Niban] | restores | – | restored | improved; also recorded: restores | prevented; also recorded: restores
YARAAARQARASPAARRASAILPG (not fully specified (residue 19)) [NiPp3] | – | – | did not restore | significant improvement | –

— patent publication US12583895B2, “Polypeptides for restoring endothelial function and methods of use thereof” (Vanderbilt University, priority 2019, dated 2026)
